Measured values reported in paper PMC7473772 (eLife, 2020).
“And” between values parts separate entries of the source, which are not always exact repeats. Equal values may be shown once. Read-outs that look alike come from different tables or passages of the source.

Columns and labels:
TbAQP2/HAPT1 = TbAQP2/HAPT1 (Trypanosoma brucei brucei, UniProt Q6ZXT3); details: cited from earlier work
[1] = tested on: tbaqp2/tbaqp3 null cells expressing TbAQP2 L118W; assay: microbe, parasite or virus in culture; assay type: cell-based, Trypanosoma brucei brucei
[2] = tested on: tbaqp2/tbaqp3 null cells expressing TbAQP3; assay type: cell-based, Trypanosoma brucei brucei
[3] = tested on: tbaqp1-2-3 null cells expressing TbAQP2 position 84, 118 and 218 Trp and Met mutants; assay: Drug sensitivity assay (resazurin), pentamidine and SHAM; assay type: cell-based, Trypanosoma brucei brucei
[4] = tested on: tbaqp2/tbaqp3 null cells expressing TbAQP3^W102I/R256L/Y250L; assay type: cell-based, Trypanosoma brucei brucei
[5] = tested on: tbaqp2/tbaqp3 null cells expressing TbAQP2^L264R; assay type: cell-based, Trypanosoma brucei brucei
[6] = tested on: tbaqp2/tbaqp3 null cells expressing TbAQP2^I190T/W192G; assay type: cell-based, Trypanosoma brucei brucei
tbaqp1-2-3 null cells = assay: Drug sensitivity assay (resazurin), pentamidine and SHAM; assay type: cell-based, Trypanosoma brucei brucei; details: KO AQP1-3
TbAQP2^L264R = TbAQP2^L264R (Trypanosoma brucei brucei, UniProt Q6ZXT3, L264R); assay: [3H]-pentamidine transport; assay type: cell-based; details: 30 nM [3H]-pentamidine
tbaqp2/tbaqp3 null cells = assay: [3H]-pentamidine transport; assay type: cell-based, Trypanosoma brucei brucei
[7] = tested on: tbaqp2/tbaqp3 null cells expressing TbAQP2 L84W; assay: microbe, parasite or virus in culture; assay type: cell-based, Trypanosoma brucei brucei
HAPT = details: cited from earlier work
T. b. brucei 2T1 [8] = assay: Drug sensitivity assay (resazurin); assay type: cell-based; details: Trypanosoma brucei, 48 h drug + 24 h resazurin, read-out: EC50 control 2T1 AVG
Outline: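 Resazurin viability read after 48 hr compound exposure (doubling dilutions starting at 100 µM, 23 points plus no-drug control) and a further 24 hr with dye, at 37°C/5% CO2. Cells were bloodstream-form trypanosomes in HMI-11: 2T1-derived aquaporin nulls and a tetracycline-induced (1 µg/ml) CRK12 RNAi line.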

T. b. brucei 2T1 [9] = assay type: cell-based, Trypanosoma brucei brucei
[10] = tested on: tbaqp2/tbaqp3 null cells expressing TbAQP2 L218W; assay: microbe, parasite or virus in culture; assay type: cell-based, Trypanosoma brucei brucei
[11] = tested on: tbaqp2/tbaqp3 null cells expressing TbAQP2^W192G; assay type: cell-based, Trypanosoma brucei brucei
TbAQP2^I190T/W192G = TbAQP2^I190T/W192G (Trypanosoma brucei brucei, UniProt Q6ZXT3, I190T/W192G); assay type: cell-based; details: Fig. 3A, exp AQP016-AQP023; AQP2 mutant I190T/W192G
TbAQP2WT [12] = assay: cell-based; set-up: species or system Trypanosoma brucei brucei
TbAQP2WT [13] = target: TbAQP2WT (Trypanosoma brucei brucei, UniProt Q6ZXT3); assay: cell-based
[14] = Trypanosoma brucei, read-out: Alamar blue EC50, MEAN
[15] = Trypanosoma brucei, read-out: Alamar blue EC50, single repeats
[16] = Trypanosoma brucei, read-out: EC50 AVG
[17] = read-out: Alamar blue EC50, single repeats
[18] = AQP2/3-dKO, 30 nM [3H]-pentamidine, 1 mM adenosine
[19] = Fig. 3A, exp AQP016-AQP023, AQP2/3-dKO
[20] = Fig. 3A, exp AQP038-AQP041, AQP2/3-dKO
[21] = dKO control of the AQP3 mutant series, over 30 minutes

Chain of TbAQP2WT (Trypanosoma brucei brucei, UniProt Q6ZXT3) (Q6ZXT3 whole entry): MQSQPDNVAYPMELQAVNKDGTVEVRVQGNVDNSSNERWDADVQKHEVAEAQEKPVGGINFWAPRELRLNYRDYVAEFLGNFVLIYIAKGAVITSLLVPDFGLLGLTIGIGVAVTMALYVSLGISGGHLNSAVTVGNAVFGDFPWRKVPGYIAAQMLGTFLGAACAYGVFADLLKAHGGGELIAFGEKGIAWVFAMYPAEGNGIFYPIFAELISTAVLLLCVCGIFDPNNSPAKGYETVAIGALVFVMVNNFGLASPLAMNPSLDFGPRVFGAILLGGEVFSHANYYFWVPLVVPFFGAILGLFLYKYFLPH
Chain of TbAQP2^I190T/W192G (Q6ZXT3 whole entry I190T/W192G): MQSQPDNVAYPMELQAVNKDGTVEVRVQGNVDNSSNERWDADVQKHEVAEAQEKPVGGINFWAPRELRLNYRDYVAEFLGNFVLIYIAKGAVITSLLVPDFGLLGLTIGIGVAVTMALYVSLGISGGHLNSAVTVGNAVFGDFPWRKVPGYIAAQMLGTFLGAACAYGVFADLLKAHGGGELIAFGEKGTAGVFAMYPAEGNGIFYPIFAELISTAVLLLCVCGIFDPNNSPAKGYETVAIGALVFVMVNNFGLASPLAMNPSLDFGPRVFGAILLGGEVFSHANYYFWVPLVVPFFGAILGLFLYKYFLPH
Chain of TbAQP2/HAPT1 (Q6ZXT3 whole entry): as the sequence (Q6ZXT3 whole entry) above
Chain of TbAQP2^L264R (Q6ZXT3 whole entry L264R): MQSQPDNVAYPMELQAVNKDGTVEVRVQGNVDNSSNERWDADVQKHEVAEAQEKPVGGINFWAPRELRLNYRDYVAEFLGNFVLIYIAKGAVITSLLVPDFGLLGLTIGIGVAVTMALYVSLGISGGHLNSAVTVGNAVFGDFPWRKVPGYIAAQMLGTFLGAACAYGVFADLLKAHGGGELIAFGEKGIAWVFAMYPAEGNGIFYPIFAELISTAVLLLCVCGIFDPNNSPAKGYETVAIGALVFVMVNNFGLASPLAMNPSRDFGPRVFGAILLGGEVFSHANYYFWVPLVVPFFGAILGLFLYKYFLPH

N=C(N)c1ccc(OCCCCCOc2ccc(C(=N)N)cc2)cc1 [Pentamidine]
Gibbs free energy of pentamidine/AQP2 interaction (TbAQP2/HAPT1): -10 kcal/mol
EC50 [1, 14]: 46.3 nM
EC50 [1, 15]: 52.4 nM
EC50 [1, 16]: 46.3 nM
EC50 [1, 17]: 40.8 nM and 45.7 nM
EC50 as percent of AQP2/3 null EC50, MEAN [2]: 105.70%
EC50 ([3]; +L84M in aqp1-3 triple KO, read-out: Alamar blue EC50, single repeats): 0.8 nM and 0.9 nM
EC50 ([3]; +L84W in aqp1-3 triple KO, read-out: Alamar blue EC50, single repeats): 18.7 nM and 15.3 nM
EC50 ([3]; +L84W/L118W in aqp1-3 triple KO, read-out: Alamar blue EC50, single repeats): 65.7 nM
EC50 ([3]; +L118M in aqp1-3 triple KO, read-out: Alamar blue EC50, single repeats): 27.8 nM and 29.4 nM
EC50 ([3]; +L118W in aqp1-3 triple KO, read-out: Alamar blue EC50, single repeats): 27.1 nM and 25.8 nM
EC50 ([3]; +L218W in aqp1-3 triple KO, read-out: Alamar blue EC50, single repeats): 3.9 nM and 5.3 nM
EC50 ([3]; Trypanosoma brucei, +L84M in aqp1-3 triple KO, 3 repeats, read-out: Alamar blue EC50, MEAN): 0.77 nM
EC50 ([3]; Trypanosoma brucei, +L84M in aqp1-3 triple KO, read-out: Alamar blue EC50, single repeats): 0.65 nM
EC50 ([3]; Trypanosoma brucei, +L84W in aqp1-3 triple KO, 3 repeats, read-out: Alamar blue EC50, MEAN): 16.1 nM
EC50 ([3]; Trypanosoma brucei, +L84W in aqp1-3 triple KO, read-out: Alamar blue EC50, single repeats): 14.4 nM
EC50 ([3]; Trypanosoma brucei, +L84W/L118W in aqp1-3 triple KO, read-out: Alamar blue EC50, single repeats): 53.4 nM
EC50 ([3]; Trypanosoma brucei, +L118M in aqp1-3 triple KO, 3 repeats, read-out: Alamar blue EC50, MEAN): 28 nM
EC50 ([3]; Trypanosoma brucei, +L118M in aqp1-3 triple KO, read-out: Alamar blue EC50, single repeats): 26.8 nM
EC50 ([3]; Trypanosoma brucei, +L118W in aqp1-3 triple KO, 3 repeats, read-out: Alamar blue EC50, MEAN): 26.6 nM
EC50 ([3]; Trypanosoma brucei, +L118W in aqp1-3 triple KO, read-out: Alamar blue EC50, single repeats): 26.9 nM
EC50 ([3]; Trypanosoma brucei, +L218M in aqp1-3 triple KO, 3 repeats, read-out: Alamar blue EC50, MEAN): 0.63 nM
EC50 ([3]; Trypanosoma brucei, +L218W in aqp1-3 triple KO, 3 repeats, read-out: Alamar blue EC50, MEAN): 4.39 nM
EC50 ([3]; Trypanosoma brucei, +L218W in aqp1-3 triple KO, read-out: Alamar blue EC50, single repeats): 4 nM
EC50 as percent of AQP2/3 null EC50, MEAN [4]: 31.94%
EC50, percent of AQP2/3 null EC50 [5]: 126.58%
EC50 as percent of AQP2/3 null EC50, MEAN [6]: 99.52%
EC50 as percent of AQP2/3 null EC50, single repeats [6]: 131.67% and 89.434% and 77.4635%
EC50 (tbaqp1-2-3 null cells; [17]): 75.4 nM and 63.9 nM
EC50 (tbaqp1-2-3 null cells; Trypanosoma brucei, 3 repeats, read-out: Alamar blue EC50, MEAN): 69.3 nM
EC50 (tbaqp1-2-3 null cells; [15]): 68.7 nM
Pentamidine transport rate (TbAQP2^L264R): 0.00017 pmol/10E7 cells/s
Pentamidine transport rate (tbaqp2/tbaqp3 null cells; [18]): 0.00022 pmol/10E7 cells/s and 0.000123 pmol/10E7 cells/s
Pentamidine transport rate, percent of +AQP2-WT (tbaqp2/tbaqp3 null cells; [18]): 0.383% and 1.05%
Pentamidine transport rate AVG (tbaqp2/tbaqp3 null cells; AQP2/3-dKO, n=16): 2.76E-04 pmol/10E7 cells/s
Pentamidine transport rate, percent of +AQP2-WT, AVG (tbaqp2/tbaqp3 null cells; AQP2/3-dKO, n=16): 1.08% of +AQP2-WT
Pentamidine transport rate, AVG (tbaqp2/tbaqp3 null cells; Fig. 3A, exp AQP001-AQP023, AQP2/3-dKO): 2.76E-04 pmol/10E7 cells/s
Pentamidine transport rate as percent of +AQP2-WT, AVG (tbaqp2/tbaqp3 null cells; [19]): 1.32%
Pentamidine transport rate as percent of +AQP2-WT, single experiments (tbaqp2/tbaqp3 null cells; [19]): 1.4% and 1.5% and 1.0%
Pentamidine transport rate as percent of +AQP2-WT, AVG (tbaqp2/tbaqp3 null cells; [20]): 0.383%
Pentamidine transport rate, AVG (tbaqp2/tbaqp3 null cells; [20]): 0.000123 pmol/10E7 cells/s
Pentamidine transport rate, single experiments (tbaqp2/tbaqp3 null cells; [20]): 0.0001045 pmol/10E7 cells/s and 0.0001529 pmol/10E7 cells/s and 0.0001563 pmol/10E7 cells/s and 8.02E-05 pmol/10E7 cells/s
Pentamidine transport rate (tbaqp2/tbaqp3 null cells; [21]): 1.22E-04 pmol/10E7 cells/s
Pentamidine transport rate, percent of TbAQP2WT control (tbaqp2/tbaqp3 null cells; [21]): 0.57%
Transport rate AVG (tbaqp2/tbaqp3 null cells; strain AQKO, unit not given, +AQP2-WT = 100): 1.05
EC50 [7, 14]: 32 nM
EC50 [7, 15]: 34.5 nM
EC50 [7, 16]: 32 nM
EC50 [7, 17]: 33.6 nM and 27.8 nM
Vmax (HAPT): 0.0044 ± 0.0004 pmol(10^7 cells)^−1 s^−1
Vmax for HAPT-mediated pentamidine uptake (HAPT): 9.5 × 10^5 molecules/cell/h and 8.5 × 10^6 molecules/cell/h
EC50 (T. b. brucei 2T1 [8]): 15 nM
Transport rate AVG (T. b. brucei 2T1 [9]): 21.86
EC50 [10, 14]: 4.39 nM
EC50 [10, 15]: 4 nM
EC50 [10, 16]: 4.4 nM
EC50 [10, 17]: 3.9 nM and 5.3 nM
EC50 as percent of AQP2/3 null EC50, MEAN [11]: 8.08%
Pentamidine transport rate as percent of +AQP2-WT, AVG (TbAQP2^I190T/W192G): 2.70%
Pentamidine transport rate, AVG (TbAQP2^I190T/W192G): 0.0005659 pmol/10E7 cells/s
Km (TbAQP2WT [12]; TbAQP2-WT cells, read-out: Km of low affinity component (LAPT1)): 82.7 ± 17.5 µM
[3H]-pentamidine taken up by the low affinity component (TbAQP2WT [12]; highly similar for TbAQP2^I190T and TbAQP2WT cell lines): approximately 0.0005 pmol(10^7 cells)^−1 s^−1
EC50 (TbAQP2WT [13]): 41 ± 17 nM
Pentamidine transport rate AVG (TbAQP2WT [13]): 0.02122 pmol/10E7 cells/s
Pentamidine transport rate as percent of +AQP2-WT, AVG (TbAQP2WT [13]): 100.0%
Pentamidine transport rate as percent of +AQP2-WT, single experiments (TbAQP2WT [13]): 100.0%
Pentamidine transport rate, AVG (TbAQP2WT [13]): 0.02122 pmol/10E7 cells/s and 0.03781 pmol/10E7 cells/s
Pentamidine transport rate, percent of +AQP2-WT, AVG (TbAQP2WT [13]): 100.00% of +AQP2-WT
Transport rate AVG (TbAQP2WT [13]): 100
activity at 0.03 µM (TbAQP2WT [13]; read-out: Pentamidine transport rate, percent of +AQP2-WT): 100%
